Data reported in ChEMBL document CHEMBL5131391, “One-pot three-component synthesis of novel pyrazolo[3,4-b]pyridines as potent antileukemic agents” (Eur J Med Chem, 2022).
pIC50: −log10 of the molar value. Active and inactive are the calls of the source. The calls are words filed in the database; no cut-off is given here.

Assays:
K562 = assay: Antiproliferative activity against human K562 cells assessed as reduction in cell viability incubated for 72 hrs by resazurin dye based assay; type: functional; settings: K562, 72 h
CCRF-CEM = assay: Antiproliferative activity against human CEM cells assessed as reduction in cell viability incubated for 72 hrs by resazurin dye based assay; type: functional
MV4-11 = assay: Antiproliferative activity against human MV4-11 cells assessed as reduction in cell viability incubated for 72 hrs by resazurin dye based assay; type: functional; settings: MV4-11, 72 h
KOPN-8 = assay: Antiproliferative activity against human KOPN-8 cells assessed as reduction in cell viability incubated for 72 hrs by resazurin dye based assay; type: functional; settings: KOPN-8, 72 h
ML-2 = assay: Antiproliferative activity against human ML-2 cells assessed as reduction in cell viability incubated for 72 hrs by resazurin dye based assay; type: functional; settings: ML-2, 72 h
RS4-11 [1] = assay: Downregulation of HOXA9 protein expression in human RS4-11 cells at 5 to 20 uM measured after 24 hrs by Western blot analysis; type: functional, cell-based; settings: dose 5-20 µM
RS4-11 [2] = assay: Antiproliferative activity against human RS4-11 cells assessed as reduction in cell viability incubated for 72 hrs by resazurin dye based assay; type: functional; settings: RS4-11, 72 h
RS4-11 [3] = assay: Induction of cell cycle arrest in human RS4-11 cells assessed as accumulation of cells in G2/M phase at 1.25 to 10 uM measured after 72 hrs by PI staining based flow cytometry analysis; type: functional; settings: dose 1.25-10 µM
RS4-11 [4] = assay: Downregulation of MEIS1 protein expression in human RS4-11 cells at 5 to 20 uM measured after 24 hrs by Western blot analysis; type: functional, cell-based; settings: dose 5-20 µM
RS4-11 [5] = assay: Induction of cell cycle arrest in human RS4-11 cells assessed as accumulation of cells in subG1 phase at 1.25 to 10 uM measured after 72 hrs by PI staining based flow cytometry analysis; type: functional; settings: dose 1.25-10 µM

Row | pIC50 (K562) | pIC50 (CCRF-CEM) | pIC50 (MV4-11) | pIC50 (RS4-11 [2]) | Compound | pIC50 (KOPN-8) | pIC50 (ML-2) | Activity (RS4-11 [1]) | Activity (RS4-11 [3]) | Activity (RS4-11 [4]) | Activity (RS4-11 [5])
1 | 4.81 | 4.43 | 4.35 |  | COc1cc(-c2c(C#N)c(-c3cccs3)nc3c2c(-c2ccccc2)nn3-c2ccccc2)ccc1O |  |  |  |  |  | 
2 | < 4.60 | < 4.60 | < 4.60 |  | COc1ccc(-c2c(C#N)c(-c3ccccc3)nc3c2c(-c2ccccc2)nn3-c2ccccc2)cc1OC |  |  |  |  |  | 
3 | 4.99 | < 4.60 | 4.94 | 5.00 | N#Cc1c(-c2ccc(F)cc2)nc2c(c(-c3ccccc3)nn2-c2ccccc2)c1-c1ccc(O)cc1 | 5.89 | 5.17 | Active | Active | Active | Active
4 | 5.23 | < 4.60 | < 4.60 | < 4.60 | N#Cc1c(-c2ccccc2)nc2c(c(-c3ccccc3)nn2-c2ccccc2)c1-c1ccc2c(c1)OCO2 | < 4.60 | < 4.60 |  |  |  | 
